{"source": "the kinase profiling compilation of Christmann-Franck et al. (2016)", "assay_in_all_cases": "Caliper, Mobility shift assay off-chip", "key": {"[1]": {"target": "MAP3K7 (human) (UniProt O43318)", "sequence (O43318 whole entry, looked up)": "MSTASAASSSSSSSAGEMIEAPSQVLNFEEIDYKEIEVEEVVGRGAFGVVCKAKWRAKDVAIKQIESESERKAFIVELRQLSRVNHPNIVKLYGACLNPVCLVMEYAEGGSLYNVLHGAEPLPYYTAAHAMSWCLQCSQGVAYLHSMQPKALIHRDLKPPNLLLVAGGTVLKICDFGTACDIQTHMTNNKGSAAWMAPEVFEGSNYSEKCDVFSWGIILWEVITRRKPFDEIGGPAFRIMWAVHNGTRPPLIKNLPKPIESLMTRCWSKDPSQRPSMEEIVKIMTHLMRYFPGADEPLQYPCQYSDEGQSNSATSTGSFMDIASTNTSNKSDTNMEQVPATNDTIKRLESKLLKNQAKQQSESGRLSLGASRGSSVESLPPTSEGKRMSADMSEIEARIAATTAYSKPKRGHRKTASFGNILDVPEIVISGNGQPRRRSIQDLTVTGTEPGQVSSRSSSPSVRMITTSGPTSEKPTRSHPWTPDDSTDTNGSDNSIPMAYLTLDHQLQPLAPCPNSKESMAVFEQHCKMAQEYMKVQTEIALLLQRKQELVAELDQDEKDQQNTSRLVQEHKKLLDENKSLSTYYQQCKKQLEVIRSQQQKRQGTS"}, "[2]": {"target": "MAPK1 (human) (UniProt P28482)", "sequence (P28482 whole entry, looked up)": "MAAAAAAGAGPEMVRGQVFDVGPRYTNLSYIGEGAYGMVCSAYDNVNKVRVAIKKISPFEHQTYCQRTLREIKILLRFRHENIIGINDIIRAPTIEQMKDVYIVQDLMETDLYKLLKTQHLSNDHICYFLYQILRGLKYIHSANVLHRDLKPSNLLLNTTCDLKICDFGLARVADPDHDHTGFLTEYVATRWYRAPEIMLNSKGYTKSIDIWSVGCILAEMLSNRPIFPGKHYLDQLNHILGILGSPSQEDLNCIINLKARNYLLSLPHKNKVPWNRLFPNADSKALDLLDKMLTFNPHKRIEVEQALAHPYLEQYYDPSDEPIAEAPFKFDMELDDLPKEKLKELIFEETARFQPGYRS"}, "[3]": {"target": "MAPK8 (human) (UniProt P45983)", "sequence (P45983 whole entry, looked up)": "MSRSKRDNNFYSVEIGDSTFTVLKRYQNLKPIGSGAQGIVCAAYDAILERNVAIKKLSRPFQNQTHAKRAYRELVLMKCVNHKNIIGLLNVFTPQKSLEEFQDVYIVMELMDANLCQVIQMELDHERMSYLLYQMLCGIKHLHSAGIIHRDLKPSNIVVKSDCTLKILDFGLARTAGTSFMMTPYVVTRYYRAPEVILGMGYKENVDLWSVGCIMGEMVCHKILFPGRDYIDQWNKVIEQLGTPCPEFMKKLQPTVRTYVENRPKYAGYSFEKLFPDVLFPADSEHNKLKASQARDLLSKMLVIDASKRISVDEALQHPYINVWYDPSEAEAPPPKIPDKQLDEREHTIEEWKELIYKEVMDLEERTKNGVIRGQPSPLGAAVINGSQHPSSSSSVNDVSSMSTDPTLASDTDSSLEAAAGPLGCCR"}, "[4]": {"target": "TNK2 (human) (UniProt Q07912)"}, "[5]": {"target": "AKT2 (human) (UniProt P31751)"}, "[6]": {"target": "CDK3 CCNE1 (human) (UniProt P24864+Q00526)"}, "[7]": {"target": "CDK7 CCNH MNAT1 (human) (UniProt P50613+P51948+P51946)"}, "[8]": {"system": "CHEK2 (human), O96017 [I157T]"}, "[9]": {"target": "CLK3 (human) (UniProt P49761)"}, "[10]": {"target": "CSF1R (human) (UniProt P07333)"}, "[11]": {"target": "CSNK1G1 (human) (UniProt Q9HCP0)"}, "[12]": {"target": "CSNK1G3 (human) (UniProt Q9Y6M4)"}, "[13]": {"target": "EPHA3 (human) (UniProt P29320)"}, "[14]": {"target": "EPHA7 (human) (UniProt Q15375)"}, "[15]": {"target": "FLT4 (human) (UniProt P35916)"}, "[16]": {"target": "FRK (human) (UniProt P42685)"}, "[17]": {"target": "GCK (human) (UniProt Q12851)", "sequence (Q12851 whole entry, looked up)": "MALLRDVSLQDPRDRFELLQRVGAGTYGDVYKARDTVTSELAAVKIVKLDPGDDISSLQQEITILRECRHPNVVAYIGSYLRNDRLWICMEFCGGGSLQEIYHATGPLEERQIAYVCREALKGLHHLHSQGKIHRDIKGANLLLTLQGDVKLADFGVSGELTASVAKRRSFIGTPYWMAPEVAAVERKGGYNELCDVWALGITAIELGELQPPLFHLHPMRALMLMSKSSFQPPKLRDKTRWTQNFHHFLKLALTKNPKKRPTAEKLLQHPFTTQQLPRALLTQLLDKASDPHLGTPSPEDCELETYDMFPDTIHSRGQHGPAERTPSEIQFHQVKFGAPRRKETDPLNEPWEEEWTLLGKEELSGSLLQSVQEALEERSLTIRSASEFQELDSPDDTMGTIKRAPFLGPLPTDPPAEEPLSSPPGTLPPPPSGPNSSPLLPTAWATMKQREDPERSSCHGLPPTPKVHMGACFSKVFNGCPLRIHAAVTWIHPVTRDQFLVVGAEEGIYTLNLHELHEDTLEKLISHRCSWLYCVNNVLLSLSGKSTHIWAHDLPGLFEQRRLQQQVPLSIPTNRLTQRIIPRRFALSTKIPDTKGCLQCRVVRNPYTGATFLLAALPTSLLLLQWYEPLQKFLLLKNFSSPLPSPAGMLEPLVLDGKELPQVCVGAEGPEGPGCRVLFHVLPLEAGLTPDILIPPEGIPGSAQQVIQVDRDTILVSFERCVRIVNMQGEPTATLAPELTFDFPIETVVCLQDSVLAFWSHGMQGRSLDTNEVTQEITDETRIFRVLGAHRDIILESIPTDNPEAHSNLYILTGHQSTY"}, "[18]": {"target": "GSK3A (human) (UniProt P49840)"}, "[19]": {"target": "GSK3B (human) (UniProt P49841)", "sequence (P49841 whole entry, looked up)": "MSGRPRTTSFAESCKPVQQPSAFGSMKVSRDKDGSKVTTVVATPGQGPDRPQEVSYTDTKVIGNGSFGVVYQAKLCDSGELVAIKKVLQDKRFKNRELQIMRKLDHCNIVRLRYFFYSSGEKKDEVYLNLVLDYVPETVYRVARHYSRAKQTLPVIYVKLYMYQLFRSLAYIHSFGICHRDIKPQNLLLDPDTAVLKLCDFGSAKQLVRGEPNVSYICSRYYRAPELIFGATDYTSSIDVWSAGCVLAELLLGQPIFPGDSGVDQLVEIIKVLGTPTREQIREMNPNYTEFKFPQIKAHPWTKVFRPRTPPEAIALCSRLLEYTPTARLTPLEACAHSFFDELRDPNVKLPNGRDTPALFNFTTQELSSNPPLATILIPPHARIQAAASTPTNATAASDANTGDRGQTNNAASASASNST"}, "[20]": {"target": "INSR (human) (UniProt P06213)"}, "[21]": {"target": "JAK2 JH1 JH2 (human) (UniProt O60674)"}, "[22]": {"target": "JAK3 JH1 JH2 (human) (UniProt P52333)"}, "[23]": {"system": "KIT (human), P10721 [V654A]", "sequence (P10721 whole entry V654A, looked up)": "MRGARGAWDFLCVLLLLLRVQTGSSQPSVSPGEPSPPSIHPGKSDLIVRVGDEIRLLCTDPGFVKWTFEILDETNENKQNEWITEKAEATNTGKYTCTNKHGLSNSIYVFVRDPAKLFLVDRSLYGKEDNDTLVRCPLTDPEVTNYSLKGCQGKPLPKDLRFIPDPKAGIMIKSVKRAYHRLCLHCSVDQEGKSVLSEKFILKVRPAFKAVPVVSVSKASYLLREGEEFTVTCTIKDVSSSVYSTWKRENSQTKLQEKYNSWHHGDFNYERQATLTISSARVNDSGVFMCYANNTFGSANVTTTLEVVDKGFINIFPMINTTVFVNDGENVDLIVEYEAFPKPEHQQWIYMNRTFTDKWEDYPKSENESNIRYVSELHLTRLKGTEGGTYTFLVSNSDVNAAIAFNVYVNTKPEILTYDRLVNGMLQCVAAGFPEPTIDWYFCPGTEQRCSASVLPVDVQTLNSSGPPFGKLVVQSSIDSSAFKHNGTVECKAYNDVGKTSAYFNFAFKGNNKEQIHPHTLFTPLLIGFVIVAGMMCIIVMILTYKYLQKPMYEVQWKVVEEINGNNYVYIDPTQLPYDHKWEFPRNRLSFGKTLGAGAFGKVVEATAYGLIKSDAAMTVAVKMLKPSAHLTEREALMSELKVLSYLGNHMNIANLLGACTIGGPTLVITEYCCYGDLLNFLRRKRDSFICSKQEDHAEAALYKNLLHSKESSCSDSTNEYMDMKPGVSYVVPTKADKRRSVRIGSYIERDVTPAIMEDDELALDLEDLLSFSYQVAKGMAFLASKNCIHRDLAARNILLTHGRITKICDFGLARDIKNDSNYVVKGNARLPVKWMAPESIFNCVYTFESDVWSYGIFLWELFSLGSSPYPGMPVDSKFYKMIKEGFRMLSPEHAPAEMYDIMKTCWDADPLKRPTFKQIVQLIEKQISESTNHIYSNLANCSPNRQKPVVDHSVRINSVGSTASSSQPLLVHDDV"}, "[24]": {"target": "LCK (human) (UniProt P06239)"}, "[25]": {"target": "MAP2K7 (human) (UniProt O14733)"}, "[26]": {"target": "MAP3K5 (human) (UniProt Q99683)"}, "[27]": {"target": "MAPK10 (human) (UniProt P53779)"}, "[28]": {"target": "MAPK9 (human) (UniProt P45984)"}, "[29]": {"target": "PASK (human) (UniProt Q96RG2)"}, "[30]": {"system": "PDGFRA (human), P16234 [V561D]"}, "[31]": {"target": "PDGFRB (human) (UniProt P09619)"}, "[32]": {"target": "PIM3 (human) (UniProt Q86V86)"}, "[33]": {"target": "PRKD2 (human) (UniProt Q9BZL6)"}, "[34]": {"target": "PRKX (human) (UniProt P51817)"}, "[35]": {"target": "ROCK2 (human) (UniProt O75116)"}, "[36]": {"target": "RPS6KA6 KD1 KD2 (human) (UniProt Q9UK32)"}, "[37]": {"target": "SRPK1 (human) (UniProt Q96SB4)", "sequence (Q96SB4 whole entry, looked up)": "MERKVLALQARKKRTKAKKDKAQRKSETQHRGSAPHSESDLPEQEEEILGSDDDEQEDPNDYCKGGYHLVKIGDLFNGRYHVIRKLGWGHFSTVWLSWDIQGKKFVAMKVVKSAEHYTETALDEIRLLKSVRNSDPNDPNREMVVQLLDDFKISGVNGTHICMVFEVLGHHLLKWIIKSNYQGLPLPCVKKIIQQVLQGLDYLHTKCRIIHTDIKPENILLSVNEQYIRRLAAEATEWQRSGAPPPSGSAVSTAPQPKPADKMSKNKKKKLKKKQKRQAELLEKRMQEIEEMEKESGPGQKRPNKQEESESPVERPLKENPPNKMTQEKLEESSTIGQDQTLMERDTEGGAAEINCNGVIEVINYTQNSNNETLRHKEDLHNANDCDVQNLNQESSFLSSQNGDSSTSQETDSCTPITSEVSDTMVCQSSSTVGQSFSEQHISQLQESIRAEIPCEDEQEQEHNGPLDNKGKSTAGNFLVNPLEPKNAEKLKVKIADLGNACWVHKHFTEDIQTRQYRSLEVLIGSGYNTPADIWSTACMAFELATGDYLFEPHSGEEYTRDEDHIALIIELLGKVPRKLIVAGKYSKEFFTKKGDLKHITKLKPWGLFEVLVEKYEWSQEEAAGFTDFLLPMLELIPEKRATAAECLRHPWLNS"}, "[38]": {"target": "STK17A (human) (UniProt Q9UEE5)"}, "[39]": {"target": "STK4 (human) (UniProt Q13043)"}, "[40]": {"target": "WNK3 (human) (UniProt Q9BYP7)"}, "[41]": {"target": "YES1 (human) (UniProt P07947)", "sequence (P07947 whole entry, looked up)": "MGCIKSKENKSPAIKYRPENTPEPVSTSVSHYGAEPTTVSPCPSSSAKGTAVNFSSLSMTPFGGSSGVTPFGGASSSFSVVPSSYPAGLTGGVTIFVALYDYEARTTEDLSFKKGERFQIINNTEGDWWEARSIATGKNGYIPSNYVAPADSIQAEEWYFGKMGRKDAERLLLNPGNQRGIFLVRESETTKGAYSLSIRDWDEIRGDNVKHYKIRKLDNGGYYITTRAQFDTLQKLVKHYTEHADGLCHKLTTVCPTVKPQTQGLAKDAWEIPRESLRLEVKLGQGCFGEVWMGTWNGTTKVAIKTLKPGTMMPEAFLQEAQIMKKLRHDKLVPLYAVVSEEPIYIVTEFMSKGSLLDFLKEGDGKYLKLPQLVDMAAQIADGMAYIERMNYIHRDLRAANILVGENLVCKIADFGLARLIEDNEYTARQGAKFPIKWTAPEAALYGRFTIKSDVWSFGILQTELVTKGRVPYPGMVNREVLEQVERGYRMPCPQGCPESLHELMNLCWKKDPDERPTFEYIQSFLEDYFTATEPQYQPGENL"}}, "data": [{"smiles": "CC(C)(C)c1nc2c3ccc(F)cc3c3c(=O)[nH]ccc3c2[nH]1", "values": [{"measurement": "residual activity", "setting": "[1]; compound 10.0 µM", "value": 12, "unit": "%"}, {"measurement": "residual activity", "setting": "[2]; compound 10.0 µM", "value": 33, "unit": "%"}, {"measurement": "residual activity", "setting": "[3]; compound 10.0 µM", "value": 10, "unit": "%"}, {"measurement": "residual activity", "setting": "[4]; compound 10.0 µM", "value": 66, "unit": "%"}]}, {"smiles": "COc1ccc(C#Cc2ccc3ncc4ncn(-c5ccc(CCN)cc5)c4c3c2)cc1", "values": [{"measurement": "residual activity", "setting": "[5]; compound 10.0 µM", "value": 15, "unit": "%"}, {"measurement": "residual activity", "setting": "[6]; compound 10.0 µM", "value": 84, "unit": "%"}, {"measurement": "residual activity", "setting": "[7]; compound 10.0 µM", "value": 73, "unit": "%"}, {"measurement": "residual activity", "setting": "[8]; compound 10.0 µM", "value": 6, "unit": "%"}, {"measurement": "residual activity", "setting": "[9]; compound 10.0 µM", "value": 65, "unit": "%"}, {"measurement": "residual activity", "setting": "[10]; compound 10.0 µM", "value": 17, "unit": "%"}, {"measurement": "residual activity", "setting": "[11]; compound 10.0 µM", "value": 51, "unit": "%"}, {"measurement": "residual activity", "setting": "[12]; compound 10.0 µM", "value": 2, "unit": "%"}, {"measurement": "residual activity", "setting": "[13]; compound 10.0 µM", "value": 86, "unit": "%"}, {"measurement": "residual activity", "setting": "[14]; compound 10.0 µM", "value": 118, "unit": "%"}, {"measurement": "residual activity", "setting": "[15]; compound 10.0 µM", "value": 1, "unit": "%"}, {"measurement": "residual activity", "setting": "[16]; compound 10.0 µM", "value": 90, "unit": "%"}, {"measurement": "residual activity", "setting": "[17]; compound 10.0 µM", "value": 17, "unit": "%"}, {"measurement": "residual activity", "setting": "[18]; compound 10.0 µM", "value": 99, "unit": "%"}, {"measurement": "residual activity", "setting": "[19]; compound 10.0 µM", "value": 118, "unit": "%"}, {"measurement": "residual activity", "setting": "[20]; compound 10.0 µM", "value": 95, "unit": "%"}, {"measurement": "residual activity", "setting": "[21]; compound 10.0 µM", "value": 106, "unit": "%"}, {"measurement": "residual activity", "setting": "[22]; compound 10.0 µM", "value": 55, "unit": "%"}, {"measurement": "residual activity", "setting": "[23]; compound 10.0 µM", "value": 34, "unit": "%"}, {"measurement": "residual activity", "setting": "[24]; compound 10.0 µM", "value": 65, "unit": "%"}, {"measurement": "residual activity", "setting": "[25]; compound 10.0 µM", "value": 30, "unit": "%"}, {"measurement": "residual activity", "setting": "[26]; compound 10.0 µM", "value": 77, "unit": "%"}, {"measurement": "residual activity", "setting": "[1]; compound 10.0 µM", "value": 83, "unit": "%"}, {"measurement": "residual activity", "setting": "[2]; compound 10.0 µM", "value": 133, "unit": "%"}, {"measurement": "residual activity", "setting": "[27]; compound 10.0 µM", "value": 12, "unit": "%"}, {"measurement": "residual activity", "setting": "[3]; compound 10.0 µM", "value": 55, "unit": "%"}, {"measurement": "residual activity", "setting": "[28]; compound 10.0 µM", "value": 77, "unit": "%"}, {"measurement": "residual activity", "setting": "[29]; compound 10.0 µM", "value": 4, "unit": "%"}, {"measurement": "residual activity", "setting": "[30]; compound 10.0 µM", "value": 10, "unit": "%"}, {"measurement": "residual activity", "setting": "[31]; compound 10.0 µM", "value": 77, "unit": "%"}, {"measurement": "residual activity", "setting": "[32]; compound 10.0 µM", "value": 22, "unit": "%"}, {"measurement": "residual activity", "setting": "[33]; compound 10.0 µM", "value": 15, "unit": "%"}, {"measurement": "residual activity", "setting": "[34]; compound 10.0 µM", "value": 91, "unit": "%"}, {"measurement": "residual activity", "setting": "[35]; compound 10.0 µM", "value": 67, "unit": "%"}, {"measurement": "residual activity", "setting": "[36]; compound 10.0 µM", "value": 15, "unit": "%"}, {"measurement": "residual activity", "setting": "[37]; compound 10.0 µM", "value": 80, "unit": "%"}, {"measurement": "residual activity", "setting": "[38]; compound 10.0 µM", "value": 15, "unit": "%"}, {"measurement": "residual activity", "setting": "[39]; compound 10.0 µM", "value": 40, "unit": "%"}, {"measurement": "residual activity", "setting": "[40]; compound 10.0 µM", "value": 104, "unit": "%"}, {"measurement": "residual activity", "setting": "[41]; compound 10.0 µM", "value": 109, "unit": "%"}]}, {"smiles": "C[C@@H](Nc1nc2c(C#CC3CC3)c[nH]c(=O)c2c2cc(-c3cn[nH]c3)ccc12)C(C)(C)C", "values": [{"measurement": "residual activity", "setting": "[5]; compound 1.0 µM", "value": 90, "unit": "%"}, {"measurement": "residual activity", "setting": "[6]; compound 1.0 µM", "value": 106, "unit": "%"}, {"measurement": "residual activity", "setting": "[7]; compound 1.0 µM", "value": 102, "unit": "%"}, {"measurement": "residual activity", "setting": "[8]; compound 1.0 µM", "value": 9, "unit": "%"}, {"measurement": "residual activity", "setting": "[9]; compound 1.0 µM", "value": 108, "unit": "%"}, {"measurement": "residual activity", "setting": "[10]; compound 1.0 µM", "value": 10, "unit": "%"}, {"measurement": "residual activity", "setting": "[11]; compound 1.0 µM", "value": 97, "unit": "%"}, {"measurement": "residual activity", "setting": "[12]; compound 1.0 µM", "value": 113, "unit": "%"}, {"measurement": "residual activity", "setting": "[13]; compound 1.0 µM", "value": 111, "unit": "%"}, {"measurement": "residual activity", "setting": "[14]; compound 1.0 µM", "value": 102, "unit": "%"}, {"measurement": "residual activity", "setting": "[15]; compound 1.0 µM", "value": 2, "unit": "%"}, {"measurement": "residual activity", "setting": "[16]; compound 1.0 µM", "value": 92, "unit": "%"}, {"measurement": "residual activity", "setting": "[17]; compound 1.0 µM", "value": 44, "unit": "%"}, {"measurement": "residual activity", "setting": "[18]; compound 1.0 µM", "value": 107, "unit": "%"}, {"measurement": "residual activity", "setting": "[19]; compound 1.0 µM", "value": 82, "unit": "%"}, {"measurement": "residual activity", "setting": "[20]; compound 1.0 µM", "value": 107, "unit": "%"}, {"measurement": "residual activity", "setting": "[21]; compound 1.0 µM", "value": 106, "unit": "%"}, {"measurement": "residual activity", "setting": "[22]; compound 1.0 µM", "value": 56, "unit": "%"}, {"measurement": "residual activity", "setting": "[23]; compound 1.0 µM", "value": 46, "unit": "%"}, {"measurement": "residual activity", "setting": "[24]; compound 1.0 µM", "value": 58, "unit": "%"}, {"measurement": "residual activity", "setting": "[25]; compound 1.0 µM", "value": 107, "unit": "%"}, {"measurement": "residual activity", "setting": "[26]; compound 1.0 µM", "value": 104, "unit": "%"}, {"measurement": "residual activity", "setting": "[1]; compound 1.0 µM", "value": 90, "unit": "%"}, {"measurement": "residual activity", "setting": "[2]; compound 1.0 µM", "value": 99, "unit": "%"}, {"measurement": "residual activity", "setting": "[27]; compound 1.0 µM", "value": 71, "unit": "%"}, {"measurement": "residual activity", "setting": "[3]; compound 1.0 µM", "value": 87, "unit": "%"}, {"measurement": "residual activity", "setting": "[28]; compound 1.0 µM", "value": 116, "unit": "%"}, {"measurement": "residual activity", "setting": "[29]; compound 1.0 µM", "value": 109, "unit": "%"}, {"measurement": "residual activity", "setting": "[30]; compound 1.0 µM", "value": 1, "unit": "%"}, {"measurement": "residual activity", "setting": "[31]; compound 1.0 µM", "value": 102, "unit": "%"}, {"measurement": "residual activity", "setting": "[32]; compound 1.0 µM", "value": 96, "unit": "%"}, {"measurement": "residual activity", "setting": "[33]; compound 1.0 µM", "value": 96, "unit": "%"}, {"measurement": "residual activity", "setting": "[34]; compound 1.0 µM", "value": 103, "unit": "%"}, {"measurement": "residual activity", "setting": "[35]; compound 1.0 µM", "value": 29, "unit": "%"}, {"measurement": "residual activity", "setting": "[36]; compound 1.0 µM", "value": 12, "unit": "%"}, {"measurement": "residual activity", "setting": "[37]; compound 1.0 µM", "value": 104, "unit": "%"}, {"measurement": "residual activity", "setting": "[38]; compound 1.0 µM", "value": 62, "unit": "%"}, {"measurement": "residual activity", "setting": "[39]; compound 1.0 µM", "value": 30, "unit": "%"}, {"measurement": "residual activity", "setting": "[4]; compound 1.0 µM", "value": 32, "unit": "%"}, {"measurement": "residual activity", "setting": "[40]; compound 1.0 µM", "value": 73, "unit": "%"}, {"measurement": "residual activity", "setting": "[41]; compound 1.0 µM", "value": 63, "unit": "%"}]}]}
